{"source": "patent US20210355105A1", "about": "“REGULATOR OF NITROGEN-CONTAINING HETEROAROMATIC DERIVATIVES, PREPARATION METHOD THEREFOR AND USE THEREOF” (Jiangsu Hansoh Pharmaceutical Group Co., Ltd., priority 2018, published 2021)", "type_in_all_cases": "in vivo", "key": {"[1]": {"test": "Pharmacokinetics assay in MiaPaca 2 tumor-bearing mice (plasma, tumor tissue, intestine)", "details": "female, mouse, oral 6 mg/kg", "procedure": "MiaPaca 2 tumor-bearing mice were used as test animals.\nTwenty-four female MiaPaca 2 tumor-bearing mice were used. Three mice were used for each time point (0 hour, 1 hour, 2 hours, 4 hours, 6 hours, 8 hours, 16 hours and 24 hours). The mice were purchased from Shanghai Sippr-BK laboratory animal Co. Ltd., with Certificate No.: SCXK (Shanghai) 2018-0006.\nThe solution was shaked well, and subjected to ultrasound for 15 minutes to obtain a uniform suspension with a concentration of 0.6 mg/mL.\nAfter fast, MiaPaca 2 tumor-bearing mice were administered orally (p.o.) with the test compound according to body weight at an administration dose of 6 mg/kg and an administration volume of 10 mL/kg (the animals were not administered with the test compound on 0 hour).\nThe mice were euthanized by CO2 before administration and after administration, and 0.5 mL of blood was taken from heart. The blood samples were stored in EDTA-2K tubes, and centrifuged for 6 minutes at 6000 rpm, at 4° C. to separate the blood plasma. The plasma samples were stored at −80° C. The tumor tissue was weighed, placed in a 2 mL centrifuge tube, and stored at −80° C. An appropriate length of duodenum, ileum and colon tissues were taken and cut open with scissors, and the contents were removed. The above tissues were washed with PBS twice, and the moisture was absorbed with absorbent paper. The tissues were weighed, placed in a 2 mL centrifuge tube, and stored at −80° C."}, "[2]": {"test": "Pharmacokinetics assay in mice, single intravenous injection", "details": "male Balb/c mice", "procedure": "Balb/c mice were used as test animals.\n(§1) The solution was subjected to ultrasound to obtain a clear solution. The solution was filtered with a 0.22 μm water filter, and the filtrate was the formulation for intravenous administration (i.v.). The concentration was 0.2 mg/mL.\nAfter an overnight fast, male Balb/c mice were administered intravenously with the test compounds at an administration dose of 1 mg/kg and an administration volume of 5 mL/kg.\nBlood was taken before administration and at 0 minute, 5 minutes, 15 minutes, 0.5 hour, 1.0 hour, 2.0 hours, 4.0 hours, 8.0 hours and 24.0 hours after administration. The blood samples were stored in EDTA-2K tubes, and centrifuged for 6 minutes at 6000 rpm, at 4° C. to separate the blood plasma. The plasma samples were stored at −80° C. The mice were fed four hours after administration."}, "[3]": {"test": "Pharmacokinetics assay in rats, single intravenous injection", "details": "male SD rats", "procedure": "SD rats were used as test animals.\nas §1\nAfter an overnight fast, male SD rats (3 rats per group) were administered intravenously with the test compounds at an administration dose of 1 mg/kg and an administration volume of 5 mL/kg.\n0.2 mL of blood was taken from jugular vein before administration and at 0 minute, 5 minutes, 15 minutes, 0.5 hour, 1.0 hour, 2.0 hours, 4.0 hours, 8.0 hours and 24.0 hours after administration. The blood samples were stored in EDTA-2K tubes, and centrifuged for 6 minutes at 6000 rpm, at 4° C. to separate the blood plasma. The plasma samples were stored at −80° C. The rats were fed four hours after administration."}, "[4]": {"details": "printed in the i.v. 1 mg/kg table"}, "[5]": {"details": "mouse, iv, i.v. 1 mg/kg, plasma"}}}
{"smiles": "Nc1nc(N2CCC3(CC2)Cc2ccccc2[C@H]3N)c(F)nc1Sc1ccnc(N)c1Cl", "note": "[Example 179, (S)-1′-(6-amino-5-((2-amino-3-chloropyridin-4-yl)thio)-3-fluoropyrazin-2-yl)-1,3-dihydrospiro[indene-2,4′-piperidin]-1-amine]", "values": [{"measurement": "AUC(0-inf)", "setting": "[1]; Colon", "value": 9180, "unit": "ng·h/mL"}, {"measurement": "Cmax", "setting": "[1]; Colon", "value": 1310, "unit": "ng/mL"}, {"measurement": "MRT", "setting": "[1]; Colon", "value": 5.8, "unit": "h"}, {"measurement": "Tmax", "setting": "[1]; Colon", "value": 4, "unit": "h"}, {"measurement": "half-life", "setting": "[1]; Colon", "value": 2.8, "unit": "h"}, {"measurement": "AUC(0-inf)", "setting": "[1]; Duodenum", "value": 16300, "unit": "ng·h/mL"}, {"measurement": "Cmax", "setting": "[1]; Duodenum", "value": 5420, "unit": "ng/mL"}, {"measurement": "MRT", "setting": "[1]; Duodenum", "value": 4.8, "unit": "h"}, {"measurement": "Tmax", "setting": "[1]; Duodenum", "value": 1, "unit": "h"}, {"measurement": "half-life", "setting": "[1]; Duodenum", "value": 4.8, "unit": "h"}, {"measurement": "AUC(0-inf)", "setting": "[1]; Ileum", "value": 10000, "unit": "ng·h/mL"}, {"measurement": "Cmax", "setting": "[1]; Ileum", "value": 1930, "unit": "ng/mL"}, {"measurement": "MRT", "setting": "[1]; Ileum", "value": 6.1, "unit": "h"}, {"measurement": "Tmax", "setting": "[1]; Ileum", "value": 2, "unit": "h"}, {"measurement": "half-life", "setting": "[1]; Ileum", "value": 5.3, "unit": "h"}, {"measurement": "AUC(0-inf)", "setting": "[1]; Plasma", "value": 2860, "unit": "ng·h/mL"}, {"measurement": "Cmax", "setting": "[1]; Plasma", "value": 386, "unit": "ng/mL"}, {"measurement": "MRT", "setting": "[1]; Plasma", "value": 7.5, "unit": "h"}, {"measurement": "Tmax", "setting": "[1]; Plasma", "value": 1, "unit": "h"}, {"measurement": "half-life", "setting": "[1]; Plasma", "value": 4.8, "unit": "h"}, {"measurement": "AUC(0-inf)", "setting": "[1]; Tumor", "value": 51800, "unit": "ng·h/mL"}, {"measurement": "Cmax", "setting": "[1]; Tumor", "value": 2390, "unit": "ng/mL"}, {"measurement": "MRT", "setting": "[1]; Tumor", "value": 19.1, "unit": "h"}, {"measurement": "Tmax", "setting": "[1]; Tumor", "value": 8, "unit": "h"}, {"measurement": "half-life", "setting": "[1]; Tumor", "value": 11.5, "unit": "h"}, {"measurement": "F", "setting": "[2]; [4]", "value": 71, "unit": "%"}, {"measurement": "AUC(0-inf)", "setting": "[2]; [5]", "value": 736, "unit": "ng·h/mL"}, {"measurement": "C0", "setting": "[2]; [5]", "value": 264, "unit": "ng/mL"}, {"measurement": "MRT", "setting": "[2]; [5]", "value": 9.04, "unit": "h"}, {"measurement": "clearance", "setting": "[2]; [5]", "value": 22.6, "unit": "mL/min/kg"}, {"measurement": "half-life", "setting": "[2]; [5]", "value": 7.74, "unit": "h"}, {"measurement": "Vd", "setting": "[2]; mouse, iv, i.v. 1 mg/kg, plasma, read-out: Vss", "value": 12.3, "unit": "L/kg"}, {"measurement": "F", "setting": "[3]; [4]", "value": 118, "unit": "%"}, {"measurement": "AUC(0-inf)", "setting": "[3]; rat, iv, i.v. 1 mg/kg, plasma", "value": 613, "unit": "ng·h/mL"}, {"measurement": "C0", "setting": "[3]; rat, iv, i.v. 1 mg/kg, plasma", "value": 311, "unit": "ng/mL"}, {"measurement": "MRT", "setting": "[3]; rat, iv, i.v. 1 mg/kg, plasma", "value": 4.26, "unit": "h"}, {"measurement": "clearance", "setting": "[3]; rat, iv, i.v. 1 mg/kg, plasma", "value": 27.2, "unit": "mL/min/kg"}, {"measurement": "half-life", "setting": "[3]; rat, iv, i.v. 1 mg/kg, plasma", "value": 3.35, "unit": "h"}, {"measurement": "Vd", "setting": "[3]; rat, iv, i.v. 1 mg/kg, plasma, read-out: Vss", "value": 7, "unit": "L/kg"}]}
